Legend:
Assay type in all cases: cell-based, human
[1] = tested on: MDA-MB-231 breast cancer cells; assay: pH-dependent doxorubicin efficacy on cell proliferation; details: 0.25 μM doxorubicin, 5-day treatment
[2] = tested on: MDA-MB-231 breast cancer cell line; assay: Cell proliferation assay (image confluency, manual cell count); details: 1 μM doxorubicin
Description: Cell viability. Incubated MDA-MB-231 cells were passaged from a confluent T-flask into a 12-well culture plate, and the treatment hydrogels were added. For the viability study, the effect of modified PEG hydrogels bicarbonate concentrations of 200, 400, 600, and 800 mM was analyzed along with the control group with no treatment (bicarbonate), and a vehicle control of PEG with no bicarbonate. The cells were imaged every twenty-four hours under Nikon TS 100 inverted light microscope attached with Excelis HD camera and processed using an ImageJ image processing macro (performed by Gavin Mays) to estimate cell confluency from the imaged area coverage. At the end of day 5, the number of live and dead cells were estimated by Trypan staining and cell counting using a hemocytometer. Percentage viability was calculated from the number of live cells as a fraction of total cells.
Cell proliferation assay. MDA-MB-231 breast cancer cell line. Cells given pH, hydrogel, sodium bicarbonate, and doxorubicin treatment. At twenty-four hours, cell confluency is observed and recorded via image processing. At Day 6, cell counting was performed using a hemocytometer. All assays increased in confluency. […] Assays without hydrogels consistent with confluency analysis. Assays with any hydrogel have low manual cell counts.

MDA-MB-231 cells = assay: MTT assay (metabolic activity), Example 2; details: 1 μM doxorubicin
Description: MTT assay. Measures metabolic activity. Cells reduce membrane permeable salt MTT (yellow) to formazan crystals (purple). Incubate for three days with treatment. Incubate for four hours with MTT. Add solubilization solution. Incubate for twelve hours. Measure absorbance of every well at OD570 nm-OD650 nm. See Riss et al., The Assay Guidance Manual (Eli Lilly & Company and the National Center for Advancing Translational Sciences. Bethesda, MD, USA, 2016). Hydrogels added to 7.4 pH with no drug had decreased metabolic activity. Hydrogels added to 6.5 pH with drug had decreased metabolic activity. Base-releasing hydrogel reduced cell proliferation, migration, and metabolic activity at an alkaline pH. Base-releasing hydrogel improved doxorubicin efficacy against cell proliferation, migration, and metabolic activity at an alkaline pH. Neutral-pH-adapted cells prefer neutral pH.
The metabolism of cancer cells can be measured by the activity of the mitochondrial reductase enzyme. […] The metabolic activity of the cells in culture can be measured by this conversion of MTT to formazan crystals. The absorbance can then be recorded at OD570 nm and OD650 nm to quantify the formazan produced by the cells through the mitochondrial reductase conversion from MTT. […] The absorbance is measured spectrophotometrically via a plate reader.

SMILES: COc1cccc2c1C(=O)c1c(O)c3c(c(O)c1C2=O)C[C@@](O)(C(=O)CO)C[C@@H]3O[C@H]1C[C@H](N)[C@H](O)[C@H](C)O1 [doxorubicin]
- efficacy at preventing cell proliferation ([1]; pH 6.5): 40%
- effectiveness at preventing cell proliferation ([1]; pH 7.4): approximately 95%
- change of cell proliferation over the six-day trial period [2]: decrease
- metabolic activity versus assays without doxorubicin (MDA-MB-231 cells): statistically significantly less metabolic activity
